# Reference: publication PMC12467740, “Synthesis, Characterization, and Screening Anticancer—Antibiofilm Activities of Theophylline Derivatives Containing CF3/OCF3 Moiety” (Biology, 2025)
# Values joined by “and” are separate entries in the source; they are usually repeats but may differ in a detail not shown here. Equal entries are not always repeated.
# Key:
# CYP450 = conditions: cited from earlier work
# [1] = tested on: Enterococcus faecalis (ATCC 29212); test: Broth microdilution MIC; type: cell-based; conditions: ciprofloxacin 0.03125–64 µg/mL
# Method: (§1) The antibacterial activities of the compounds were determined using the broth microdilution method, as per the advice of international standards. […] Standard bacterial strains Staphylococcus aureus (ATCC 29213), Enterococcus faecalis (ATCC 29212), Escherichia coli (ATCC 25922), Pseudomonas aeruginosa (ATCC 27853), and yeast Candida albicans (ATCC 10231), were previously stored at −80 °C then revived at room temperature. Microorganisms were inoculated using overnight broth cultures. Stock solutions of the samples studied at a concentration of 1000 µg/mL were prepared with dimethyl sulfoxide (DMSO). An amount of 100 µL of Mueller Hinton Broth (Liofilchem, Italy) were dispensed into all wells of 96-well microplates. […] Serial dilutions of 0.00048–1% DMSO were made into a column of the microplate to determine its antimicrobial activity. 0.5 McFarland standard in physiological saline from each microorganism strains were prepared and 20 µL of the prepared suspension was added to the wells. An amount of 100 µL Mueller Hinton Broth in a column of the microplate served as a negative control and another column of the microplate containing 100 µL of Mueller Hinton Broth with 20 µL of each microorganism added served as a growth control. As positive controls, ciprofloxacin was applied against bacterial strains at a concentration range of 0.03125–64 µg/mL, and fluconazole was used against Candida albicans at a concentration range of 0.3125–640 µg/mL. The plates were covered with parafilm, incubated at 36.5 °C in an aerobic environment for 24 h. After incubation, the optical density was measured at 620 nm. The first concentration without microbial growth was determined as MIC and experiments were repeated twice.
# [2] = tested on: Escherichia coli (ATCC 25922); test: Broth microdilution MIC; type: cell-based; conditions: ciprofloxacin 0.03125–64 µg/mL
# Method: as §1
# [3] = tested on: Pseudomonas aeruginosa (ATCC 27853); test: Broth microdilution MIC; type: cell-based; conditions: ciprofloxacin 0.03125–64 µg/mL
# Method: as §1
# [4] = tested on: Staphylococcus aureus (ATCC 29213); test: Broth microdilution MIC; type: cell-based; conditions: ciprofloxacin 0.03125–64 µg/mL
# Method: as §1
# Escherichia coli = test: Well plate biofilm formation assay (crystal violet); type: cell-based; conditions: over the concentration range given per compound (Table 4)
# Method: (§2) The well plate assay was utilized to test the effectiveness of compounds in inhibiting biofilms made by microorganisms. An amount of 100 μL of Brucella broth (Remel, Lenexa, KS, USA) containing 1% and 20% glucose (Biolife, Milan, Italy), were dispensed into the test wells. In the next step, 100 μL of compounds ranging from 0.244 to 1000 μg/mL were poured into the wells. […] Then, 0.5 McFarland standard in physiological saline from each microorganism strain were prepared and 20 μL of the prepared suspension was added to the wells. A column of the microplate containing 100 μL Brucella broth served as a negative control and another column of the microplate containing 100 μL Brucella with 20 μL of each microorganism added served as a growth control. As positive controls, ciprofloxacin was applied against bacterial strains at a concentration range of 0.03125-64 μg/mL, and fluconazole was used against Candida albicans at a concentration range of 0.3125-640 μg/mL. Plates were left to incubate at 36.5 °C for a day. The plates were emptied and then washed three times with 300 μL of deionized water. The wells were left to dry for half an hour. The next step was staining with 0.1% (w/v) violet dye ([…]), cleaning three times with deionized water, and drying at room temperature. The crystal violet adhering to the wall of the wells was dissolved with 95% ethanol, and the optical density was measured at 570 nm. The test was run two times, and the mean value was calculated. Biofilm preventing (%) = {(ODb - ODc)/ODb} × 100.
# Pseudomonas aeruginosa = test: as above; type: cell-based; conditions: over the concentration range given per compound (Table 4)
# Method: as §2
# Staphylococcus aureus = test: as above; type: cell-based; conditions: over the concentration range given per compound (Table 4); 1c and 1e at 1000 µg/mL
# Method: as §2
# Enterococcus faecalis = test: as above; type: cell-based; conditions: over the concentration range given per compound (Table 4)
# Method: as §2
# BEAS-2B cells = test: MTT cell viability assay, BEAS-2B; type: cell-based; conditions: Homo sapiens, 48 h, mean ± SD (n = 3)
# Method: (§3) The anticancer potential of substituted theophylline derivatives was investigated using human lung carcinoma (A549, CCL-185) and cervical cancer (HeLa, CCL-2) cell lines obtained from the American Type Culture Collection (ATCC). To evaluate the selectivity of the tested compounds, cytotoxicity was also assessed in a healthy human bronchial epithelial cell line (BEAS-2B, ATCC CRL-9609). Cells were maintained in DMEM (Euroclone S.p.A., Pero, Italy supplemented with 10% fetal bovine serum (Sigma-Aldrich, St. Louis, MO, USA) and 1% penicillin–streptomycin (1%, Capricorn Scientific GmbH, Ebsdorfergrund, Germany at 37 °C in a humidified atmosphere containing 5% CO2. The theophylline-derived compounds (1a–1e) were dissolved in DMSO to prepare 100 mM stock solutions, which were then diluted with DMEM to obtain final working concentrations ranging from 3.125 µM to 100 µM. To evaluate cell viability, the MTT colorimetric assay was employed. Upon reaching logarithmic growth, A549, HeLa and BEAS-2B cells were seeded at a density of 7000 cells per well in 96-well microplates and allowed to attach for 24 h. Following this, cells were treated with different concentrations of the compounds and incubated for 48 h. After treatment, 100 µL of fresh medium and 20 µL of MTT reagent (5 mg/mL, Bio Basic Inc., Markham, ON, Canada) were added to each well, and cells were incubated for an additional 3 h. The resulting formazan crystals were solubilized with DMSO. Cell viability was calculated as the percentage of absorbance relative to untreated controls, and IC50 values were determined by nonlinear regression analysis using GraphPad Prism software, version 8.0 (GraphPad Software, San Diego, CA, USA. All experiments were performed in at least three independent replicates, and results are reported as mean ± SD. The percentage of inhibition was calculated based on the reduction in metabolic activity of the cells following compound treatment, as assessed by the MTT assay. The absorbance was measured at 570 nm using a microplate reader. The inhibition (%) was calculated using the following formula:Inhibition %=[1 − (Asample − Ablank)/[…]] × 100 To assess the tumor selectivity of the tested theophylline derivatives, the selectivity index (SI) was calculated for each compound. SI is defined as the ratio of the IC50 value in healthy (non-tumorigenic) cells to the IC50 value in cancer cells. In this study, IC50 values were determined for BEAS-2B (non-tumorigenic human bronchial epithelial cells) as a healthy control and for A549 (lung adenocarcinoma) and HeLa (cervical carcinoma) as tumor models. The SI was calculated according to the following equation:SI = [IC50, healthy/IC50, cancer]
# A549 cells [5] = test: MTT cell viability assay, A549; type: cell-based, human; conditions: for IC50: MTT, 48 h, mean ± SD (n = 3)
# Method: as §3
# HeLa cells [6] = test: MTT cell viability assay, HeLa; type: cell-based, human
# Method: as §3
# A549 cells [7] = test: RT-qPCR of apoptosis-related genes, A549; type: cell-based, human; conditions: A549, IC50 concentration, 48 h, vs untreated control
# Method: (§4) Total RNA was isolated from cells using the RNeasy Mini Kit (Qiagen GmbH, Hilden, Germany) according to the manufacturer’s instructions. RNA quality and quantity were evaluated spectrophotometrically. Subsequently, cDNA synthesis was performed using the iScript™ cDNA Synthesis Kit (Bio-Rad Laboratories, Hercules, CA, USA).
# (§5) RT-qPCR reactions (LightCycler® 480 Instrument II (Roche Diagnostics, Mannheim, Germany) were carried out using SYBR™ Green PCR Master Mix (Applied Biosystems, Foster City, CA, USA) and gene-specific primers targeting pro-apoptotic genes (CASP3, CASP8, CASP9, BAX, BAK1, PUMA, NOXA, CYCS), anti-apoptotic genes (BCL2, BCL-XL, MCL1), cell cycle/stress-related genes (TP53, CDKN1A/p21, GADD45A, ATF4), and the reference gene GAPDH. The primer sequences used for each gene are presented in the Supplementary File (Figure S66).
# (§6) All reactions were conducted in triplicate, and negative controls (no-template controls, NTC) were included in each run. Relative gene expression levels were analyzed using the 2^−ΔΔCt method, and results were normalized to control samples (control expression set as ‘1’) and expressed as fold change relative to controls.
# HeLa cells [8] = test: RT-qPCR of apoptosis-related genes, HeLa; type: cell-based, human; conditions: IC50 concentration, 48 h, vs untreated control
# Method: as §4, §5, §6
# A549 cells [9] = test: ELISA of apoptosis-related proteins, A549; type: cell-based, human; conditions: A549, IC50, 48 h, vs untreated controls
# Method: (§7) To validate the gene expression changes observed in the RT-qPCR analysis at the protein level, ELISA assays were conducted to measure the protein levels in A549 and HeLa cells. […] Following incubation, cells were washed with cold PBS and lysed using RIPA buffer supplemented with protease and phosphatase inhibitors. […] was removed by centrifugation at 14,000× g for 10 min. Total protein concentration in the cell lysates was determined spectrophotometrically using the BCA Protein Assay Kit (Thermo Scientific, Waltham, MA, USA). Protein concentrations were standardized to equal amounts across all samples prior to ELISA analysis. Commercially available Human ELISA Kit (Abcam, Cambridge, UK) were used to quantify Caspase-3, BAX, BCL-2, and Cytochrome C levels, and all assays were performed according to the manufacturers’ protocols. Absorbance was measured at 450 nm using a microplate reader. All experiments were conducted in triplicate. The results were normalized to the control group (control = 1) and expressed as fold change relative to untreated controls.
# HeLa cells [10] = test: ELISA of apoptosis-related proteins, HeLa; type: cell-based, human; conditions: IC50, 48 h, vs untreated controls
# Method: as §7
# Candida albicans = test: Well plate biofilm formation assay (crystal violet); type: cell-based; conditions: over the concentration range given per compound (Table 4)
# Method: as §2
# [11] = tested on: Candida albicans (ATCC 10231); test: Broth microdilution MIC; type: cell-based; conditions: fluconazole 0.3125–640 µg/mL
# Method: as §1
structure (smiles),measurement,setting,value
C[C@]12CC[C@H](O)CC1=CC[C@@H]1[C@@H]2CC[C@]2(C)C(c3cccnc3)=CC[C@@H]12 [Abiraterone],binding properties (docking),CYP450,-10.3 kcal/mol
"O=C(O)c1cn(C2CC2)c2cc(N3CCNCC3)c(F)cc2c1=O [Ciprofloxacin, ciprofloxacin, reference compound]",Microbial growth in positive control wells,[1],no microbial growth was observed
same,Microbial growth in positive control wells,[2],no microbial growth was observed
same,Microbial growth in positive control wells,[3],no microbial growth was observed
same,Microbial growth in positive control wells,[4],no microbial growth was observed
same,Antibiofilm activity Escherichia coli,Escherichia coli,36.67%
same,Antibiofilm activity Pseudomonas aeruginosa,Pseudomonas aeruginosa,35.79%
same,Antibiofilm activity Staphylococcus aureus,Staphylococcus aureus,50.56%
same,Antibiofilm activity Enterococcus faecalis,Enterococcus faecalis,18.11%
"Cn1c(=O)c2c(ncn2Cc2ccccc2C(F)(F)F)n(C)c1=O [Compound 1a, 1,3-Dimethyl-7-(2-(trifluoromethyl)benzyl)-3,7-dihydro-1H-purine-2,6-dione]",IC50,BEAS-2B cells,100 ± 2 µM
same,IC50,"A549 cells [5]; Homo sapiens, A549, 48 h",15.7 ± 0.6 µM
same,IC50,A549 cells [5],12.4 ± 0.7 µM
same,SI (A549),A549 cells [5]; ratio of IC50 in BEAS-2B cells to IC50 in A549 cells,8.06 ± 0.03 and 8.06 ± 0.10
same,IC50,"HeLa cells [6]; Homo sapiens, HeLa, 48 h, MTT, mean ± SD (n = 3)",11.5 ± 1.2 µM
same,SI (HeLa),HeLa cells [6]; ratio of IC50 in BEAS-2B cells to IC50 in HeLa cells,8.70 ± 0.20
same,"Expression of anti-apoptotic genes (BCL2, BCL-XL, MCL1)",A549 cells [7],notable downregulation
same,"Expression of pro-apoptotic genes (CASP3, CASP8, CASP9, BAX, BAK1, PUMA, NOXA, CYCS) and cell cycle/stress genes (TP53, CDKN1A, FAS, GADD45A, ATF4)",A549 cells [7],significant upregulation
same,"Expression of anti-apoptotic genes (BCL2, BCL-XL, MCL1)",HeLa cells [8],notable downregulation
same,"Expression of pro-apoptotic genes (CASP3, CASP8, CASP9, BAX, BAK1, PUMA, NOXA, CYCS) and cell cycle/stress genes (TP53, CDKN1A, FAS, GADD45A, ATF4)",HeLa cells [8],significant upregulation
same,Protein level of BCL-2,A549 cells [9],marked decrease
same,"Protein levels of Caspase-3, BAX and Cytochrome C",A549 cells [9],significant increases
same,Protein level of BCL-2,HeLa cells [10],marked decrease
same,"Protein levels of Caspase-3, BAX and Cytochrome C",HeLa cells [10],significant increases
same,Antibiofilm activity Escherichia coli,Escherichia coli,did not show antibiofilm activity and –
same,Antibiofilm activity Pseudomonas aeruginosa,Pseudomonas aeruginosa,did not show antibiofilm activity and –
same,Antibiofilm activity Staphylococcus aureus,Staphylococcus aureus,did not show antibiofilm activity and –
same,Antibiofilm activity Candida albicans,Candida albicans,0.5–13.7%
same,Antibiofilm activity Enterococcus faecalis,Enterococcus faecalis,1.08–14.7%
"OC(Cn1cncn1)(Cn1cncn1)c1ccc(F)cc1F [Fluconazole, fluconazole, reference compound]",Microbial growth in positive control wells,[11],no microbial growth was observed
same,Antibiofilm activity Candida albicans,Candida albicans,29.10%
